The numbers were not newly measured in US20190358249A1, “Injectable Combination Products Of Fosaprepitant And 5-HT3 Blocker” (Navinta III Inc, priority 2018, published 2019), which cites them from elsewhere.

SMILES strings stand for the structures. “Also recorded” adds a separate entry of the source. Structures can show the parent of a compound that is named as a salt.

For data set [1] the following is noted: 1% w/v in water.
For data set [2] the following is noted: precipitates when the pH is above the range.
Data set [3] has as its system subjects receiving highly emetogenic cisplatin-based chemotherapy. Particulars: added to ondansetron and dexamethasone.

Regarding `Cc1nccn1CC1CCc2c(c3ccccc3n2C)C1=O` (stereo not drawn) [Ondansetron], the “pH of a 1% w/v solution in water” value in data set [1] is reported as “about 4.6”. In addition, the “pH above which free base precipitates” value in data set [2] is 5.7-7. Also, under “saline”, the solubility in saline was 0.8%. Moreover, the solubility in water (water) is reported as 3.2%.
As for `C[C@@H](O[C@H]1OCCN(Cc2n[nH]c(=O)[nH]2)[C@H]1c1ccc(F)cc1)c1cc(C(F)(F)F)cc(C(F)(F)F)c1` [Aprepitant], the “protection against CINV” value in data set [3] was “consistently superior protection”. Also, the “solubility in water (in words)” value (water) was “very low solubility; also recorded: minimal solubility; also recorded: practically insoluble”.
For the compound `O=C1c2cccc3c2[C@H](CCC3)CN1[C@@H]1CN2CCC1CC2` [Palonosetron Hydrochloride], where the note is “across the physiological pH range”, the “solubility in aqueous media” value is reported as “very soluble”. The “solubility in water (in words)” value (water) is given as “freely soluble”.
As for `C[C@@H](O[C@H]1OCCN(Cc2nc(O)n(P(=O)(O)O)n2)[C@H]1c1ccc(F)cc1)c1cc(C(F)(F)F)cc(C(F)(F)F)c1` [Fosaprepitant], under “water”, the “solubility in water (in words)” value was “good solubility”.
